Assay results reported in patent US20070167499A1, “Biaryl linked hydroxamates: preparation and pharmaceutical applications” (A*BIO Pte Ltd., priority 2003, published 2007).
Where two headings read alike, the source gives them in different places.

Tests used:
HDAC8 enzyme (GST-HDAC8) = molecular target: T1, HDAC8 enzyme (GST-HDAC8) (Homo sapiens, UniProt Q9BY41); experiment: In vitro HDAC assay for determination of IC50 values (BIOMOL fluorescent-based HDAC activity assay), HDAC8; format: biochemical
T1 construct: Amplification of human HDAC1 and HDAC8 coding region from this cDNA library; made in house; host or cells: SF9 insect cells (baculovirus, pFASTBAC vector)
T1 sequence (Q9BY41 1-377): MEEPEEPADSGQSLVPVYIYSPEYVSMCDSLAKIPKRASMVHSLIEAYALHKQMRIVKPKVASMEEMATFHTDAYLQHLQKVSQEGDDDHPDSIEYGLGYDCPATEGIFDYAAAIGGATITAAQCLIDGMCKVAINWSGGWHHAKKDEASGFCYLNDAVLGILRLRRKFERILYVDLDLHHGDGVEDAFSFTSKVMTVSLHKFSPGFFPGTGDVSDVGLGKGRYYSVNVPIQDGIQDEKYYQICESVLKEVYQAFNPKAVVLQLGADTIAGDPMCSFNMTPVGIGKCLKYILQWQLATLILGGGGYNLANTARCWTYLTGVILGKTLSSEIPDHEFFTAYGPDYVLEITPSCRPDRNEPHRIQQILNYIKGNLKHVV
Method: Recombinant GST-HDAC1 and GST-HDAC-8 Protein expression and purification
Human cDNA library was prepared using cultured SW620 cells. Amplification of human HDAC1 and HDAC8 coding region from this cDNA library was cloned separately into the baculovirus expression pDEST20 vector and pFASTBAC vector respectively (GATEWAY Cloning Technology, Invitrogen Pte Ltd). […] Recombinant baculovirus was prepared using the Bac-To-Bac method following the manufacturer's instruction (Invitrogen Pte Ltd).
Expression of GST-HDAC1 or HTGST-HDAC8 was done by infecting SF9 cells (Invitrogen Pte Ltd) with pDEST20-HDAC1 or pFASTBAC-GST-HDAC8 baculovirus at MOI=1 for 48 h. Soluble cell lysate was incubated with pre-equilibrated Glutathione Sepharose 4B beads (Amersham) at 4° C. for 2 h. The beads were washed with PBS buffer for 3 times. The GST-HDAC1 protein or GST-HDAC8 protein was eluted by elution buffer containing 50 mM Tris, pH8.0, 150 mM NaCl, 1% Triton X-100 and 10 mM or 20 mM reduced Glutathione. The purified GST-HDAC1 protein or purified GST-HDAC8 protein was dialyzed with HDAC storage buffer containing 10 mM Tris, pH7.5, 100 mM NaCl and 3 mM MgCl2. 20% Glycerol was added to purified GST-HDAC1 protein or purified GST-HDAC8 before storage at −80° C.
In vitro HDAC assay for determination of IC50 values
The assay has been carried out in 96 well format and the BIOMOL fluorescent-based HDAC activity assay has been applied. […] Flur de lys Developer was added and the reaction was incubated for 10 min. Briefly, deacetylation of the substrate sensitizes it to the developer, which then generates a fluorophore The fluorophore is excited with 360 nm light and the emitted light (460 nm) is detected on a fluorometric plate reader (Tecan Ultra Microplate detection system, Tecan Group Ltd.).
The analytical software, Prism 3.0® (GraphPad Software Inc) has been used to generate IC50 from a series of data.

[1] = tested on: acetylated H4 in Colo205 cells; experiment: Histone H4 acetylation assay (western-blot); format: cell-based, human; design: key: “Active” means accumulation of acetylated histone was observed when compared with control (without compound); settings: Colo205 cells, 0.1, 1, 5 and 10 μM, after 24 h
Method: Histone H3, H4 and H2A acetylation assay
A hallmark of histone deacetylase (HDAC) inhibition is the increase in the acetylation level of histones. Histone acetylation, including H3, H4 and H2A can be detected by immuno-blotting (western-blot). Colo205 cells, approximately 1.5×10^6 cells/10 cm dish, were seeded in the previously described medium, cultivated for 24 h and subsequently treated with HDAC inhibitory agents at 0.1, 1, 5 and 10 μM final concentration. After 24 h, cells were harvested and lysed according to the instruction from Sigma Mammalian Cell Lysis Kit. The protein concentration was quantified using BCA method (Sigma Pte Ltd). The protein lysate was separated using 4-12% bis-tris SDS-PAGE gel (Invitrogen Pte Ltd) and was transferred onto PVDF membrane (BioRad Pte Ltd). The membrane was probed separately using primary antibody specific for acetylated H3, acetylated H4 or acetylated H2A (Upstate Pte Ltd). The detection antibody, goat anti rabbit antibody conjugated with horse radish peroxidase (HRP) was used according to the manufacturing instruction (Pierce Pte Ltd). After removing the detection antibody from the membrane, an enhanced chemiluminescent substrate for detection of HRP (Pierce Pte Ltd) was added onto the membrane. After removing the substrate, the membrane was exposed to an X-ray film (Kodak) for 1 sec-20 mins. The X-ray film was developed using the X-ray film processor. The density of each band observed on the developed film could be analysed using UVP Bioimaging software (UVP, Inc, Upland, Calif.). The values were then normalized against the density of actin in the corresponding samples to obtain the expression of the protein.

MDA-MB435 = experiment: Cell-based proliferation assay for determination of GI50 values, breast cancer cell line; settings: Homo sapiens, MDA-MB-435; 96 h treatment, cyquant cell proliferation assay; read-out: Cellular activities GI50, MDA-MB435
Method: Cell-based Proliferation assay for determination of GI50 values
Three different cancer cell lines were obtained from ATCC: Human colon cancer cell line (Colo205), human breast cancer cell lines (MDA-MB435), and human lung cancer cell line (NCl-H522). Colo205 cells and NCl-H522 were cultivated in RPMI 1640 containing 2 mM
L-Glutamine, 5% FBS, 1.0 mM Na Pyruvate. MDA-MB435 cells were cultivated in DMEM containing 2 mM L-Glutamine, 5% FBS. Colo205 cells were seeded in 96-wells plate at 2000 and 5000 cells per well respectively. MDA-MB435 and NCl-H522 cells were seeded in 96-wells plate at 6000 cells per well. The plates were incubated at 37° C., 5% CO2, for 24 h. Cells were treated with compounds at various concentrations for 96 h. Cell growth was then monitored using cyquant cell proliferation assay (Invitrogen Pte Ltd). Dose response curves were plotted to determine GI50 values for the compounds using XL-fit (ID Business Solution, Emeryville, Calif.).

[2] = 500 nM HDAC8 enzyme, 200 μM Flur de lys p53 peptide substrate, room temperature 2 h, read-out: HDAC8 Enzyme Activity, IC50

Compound | IC50 (HDAC8 enzyme (GST-HDAC8)) [nM] | Histone 4 acetylation [1] | IC50 (HDAC8 enzyme (GST-HDAC8); [2]) [nM] | GI50 (MDA-MB435) [nM]
O=C(Cc1ccc(-c2csc(NC(=O)Cc3ccccc3)n2)s1)NO [Example 1, N-Hydroxy-2-[5-(2-phenylacetylamino-thiazol-4-yl)-thiophen-2-yl]-acetamide] | 41 | – | – | –
Nc1nc(-c2ccc(/C=C/C(=O)NO)cc2)cs1 [Example 23, 3-[4-(2-Amino-thiazol-4-yl)-phenyl]-N-hydroxy-acrylamide] | – | Active | 100 | 4460
O=C(NO)c1ccc(-c2ccc(CNCCc3ccccc3)cc2)s1 [Example 26, 5-[4-(Phenethylamino-methyl)-phenyl]-thiophene-2-carboxylic acid hydroxyamide] | – | Active | 16 | 2660
O=C(NO)c1ccc(-c2ccc(CNCCc3ccccn3)cc2)s1 [Example 27] | – | Active | 120 | 1490
